In ChEMBL document CHEMBL1201862, “PubChem BioAssay data set” (2004):
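96-well plates; 48 h exposure; 5 concentrations. Endpoints by linear interpolation between flanking doses. Not reached: highest tested concentration assigned. GI50: concentration for 50% inhibition of growth.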 Active and inactive are the calls of the source. Cut-off read from the data, not from the text of the source: active = GI50 up to about 1.1 µM and inactive = higher.

Tests used:
Assay in all cases: NCI anticancer screen, dose series, 48 h
A549 = test system: A549
DLD-1 = test system: DLD-1
EKVX = test system: EKVX
HCT-15 = test system: HCT-15
HT-29 = test system: HT-29
KM12 = test system: KM12
NCI-H522 = test system: NCI-H522
OVCAR-3 = test system: OVCAR-3
OVCAR-8 = test system: OVCAR-8
SK-MEL-2 = test system: SK-MEL-2
SK-MEL-5 = test system: SK-MEL-5
SK-OV-3 = test system: SK-OV-3
SNB-75 = test system: SNB-75
SW-620 = test system: SW-620
U-251 = test system: U-251
UACC-257 = test system: UACC-257
BT-549 = test system: BT-549
HCC 2998 = test system: HCC 2998
LOX IMVI = test system: LOX IMVI
RXF 393 = test system: RXF 393

Row | SMILES | GI50 (A549) | GI50 (DLD-1) | GI50 (EKVX) | GI50 (HCT-15) [µM] | GI50 (HT-29) | GI50 (KM12) | GI50 (NCI-H522) | GI50 (OVCAR-3) | GI50 (OVCAR-8) | GI50 (SK-MEL-2) | GI50 (SK-MEL-5) | GI50 (SK-OV-3) | GI50 (SNB-75) | GI50 (SW-620) | GI50 (U-251) | GI50 (UACC-257) | GI50 (BT-549) | GI50 (HCC 2998) | GI50 (LOX IMVI) | GI50 (RXF 393)
1 | Cc1cc(Cl)ccc1N1C(=O)C(=O)C(c2nc3ccccc3s2)C(=O)C1=O | > 100 µM (inactive) | > 100 µM (inactive) | > 100 µM (inactive) | > 100 | > 100 µM (inactive) | > 100 µM (inactive) | > 100 µM (inactive) | > 100 µM (inactive) | > 100 µM (inactive) | > 100 µM (inactive) | > 100 µM (inactive) | > 100 µM (inactive) | > 100 µM (inactive) | > 100 µM (inactive) | > 100 µM (inactive) | > 100 µM (inactive) | – | – | – | –
2 | C#CCN(Cc1ccc2nc(OC)c(OC)nc2c1)c1cc(OC)c(OC)c(OC)c1 | 18.4 µM (inactive) | – | 14.8 µM (inactive) | 22.9 | 21.8 µM (inactive) | 15 µM (inactive) | 9.44 µM (inactive) | 37.8 µM (inactive) | 20.7 µM (inactive) | 23.1 µM (inactive) | 7.82 µM (inactive) | 24.5 µM (inactive) | 33.7 µM (inactive) | 30.2 µM (inactive) | 23.9 µM (inactive) | 12.3 µM (inactive) | 15.4 µM (inactive) | 35.1 µM (inactive) | 11.7 µM (inactive) | 14.9 µM (inactive)
3 | Cn1nc(-c2ccccc2)c2c(/C=C/c3ccc(Cl)cc3)onc2c1=O | 8.95 µM (inactive) | 46 µM (inactive) | > 100 µM (inactive) | 26.3 | 34.4 µM (inactive) | – | 13.3 µM (inactive) | – | 16.7 µM (inactive) | – | > 100 µM (inactive) | > 10 µM (inactive) | – | 28.7 µM (inactive) | 33.7 µM (inactive) | – | – | – | 25.6 µM (inactive) | 39.8 µM (inactive)
4 | CC(CC(=O)O)(CC(=O)O)c1ccccc1 | > 100 µM (inactive) | – | > 100 µM (inactive) | > 100 | > 100 µM (inactive) | > 100 µM (inactive) | > 100 µM (inactive) | > 100 µM (inactive) | > 100 µM (inactive) | > 100 µM (inactive) | > 100 µM (inactive) | > 100 µM (inactive) | > 100 µM (inactive) | > 100 µM (inactive) | > 100 µM (inactive) | > 100 µM (inactive) | > 100 µM (inactive) | > 100 µM (inactive) | > 100 µM (inactive) | > 100 µM (inactive)
5 | C/C(=N\NC(=O)CC(=O)N(C(=O)c1ccc(Cl)cc1)c1ccc(C)cc1)c1ccccc1O | 35.6 µM (inactive) | 74.6 µM (inactive) | 6.79 µM (inactive) | 4.88 | 48.1 µM (inactive) | 9.68 µM (inactive) | 36.6 µM (inactive) | 14 µM (inactive) | 18.7 µM (inactive) | > 100 µM (inactive) | > 100 µM (inactive) | > 100 µM (inactive) | 18.2 µM (inactive) | > 100 µM (inactive) | 19.6 µM (inactive) | > 100 µM (inactive) | – | – | – | 18.3 µM (inactive)
6 | CCCCCC(=O)OCC1(CO)C/C(=C/CC(C(C)C)C(C)C)C(=O)O1 (centres undefined) | 51.1 µM (inactive) | – | > 75 µM (inactive) | 73.1 | 38.6 µM (inactive) | 13.5 µM (inactive) | 13.7 µM (inactive) | 50 µM (inactive) | 21.9 µM (inactive) | > 75 µM (inactive) | 48.8 µM (inactive) | > 75 µM (inactive) | 74 µM (inactive) | 25.2 µM (inactive) | 44.4 µM (inactive) | > 75 µM (inactive) | > 75 µM (inactive) | 59.7 µM (inactive) | 10.6 µM (inactive) | > 75 µM (inactive)
7 | CC(C)(C)[Si](C)(C)OCC1OC(n2cc(F)c(=O)[nH]c2=O)CC1O[Si](C)(C)C(C)(C)C (centres undefined) | 10.5 µM (inactive) | – | 8.04 µM (inactive) | 7.24 | 7.19 µM (inactive) | 4.19 µM (inactive) | 3.29 µM (inactive) | 15.2 µM (inactive) | 16.1 µM (inactive) | 12.1 µM (inactive) | 3.27 µM (inactive) | 14 µM (inactive) | 4.03 µM (inactive) | 9.93 µM (inactive) | 8.65 µM (inactive) | 4.02 µM (inactive) | 5.43 µM (inactive) | 1.72 µM (inactive) | 5.79 µM (inactive) | 4.42 µM (inactive)
8 | Oc1c(Cl)c(Cl)c(Cl)c(Cl)c1Cl [PENTACHLOROPHENOL] | 23.1 µM (inactive) | – | 23.4 µM (inactive) | 19.5 | 21.2 µM (inactive) | 19.5 µM (inactive) | 24 µM (inactive) | 18.7 µM (inactive) | 20.8 µM (inactive) | 16 µM (inactive) | 18.3 µM (inactive) | 45.6 µM (inactive) | 22.9 µM (inactive) | 24.5 µM (inactive) | 16.1 µM (inactive) | > 100 µM (inactive) | 25.6 µM (inactive) | > 100 µM (inactive) | 17.9 µM (inactive) | 23.2 µM (inactive)
9 | CC(=O)O[C@H]1C[C@@H](OC(C)=O)[C@@](C)(O)[C@@H]2[C@@H](OC(C)=O)[C@@]3(O)[C@H](/C=C(/CCl)[C@H]4O[C@H]4[C@@H](OC(C)=O)[C@@]12C)OC(=O)[C@@H]3C | > 25 µM (inactive) | – | > 25 µM (inactive) | > 25 | > 25 µM (inactive) | > 25 µM (inactive) | > 25 µM (inactive) | > 25 µM (inactive) | > 25 µM (inactive) | > 25 µM (inactive) | 22.3 µM (inactive) | > 25 µM (inactive) | > 25 µM (inactive) | > 25 µM (inactive) | > 25 µM (inactive) | > 25 µM (inactive) | > 25 µM (inactive) | > 25 µM (inactive) | 21.2 µM (inactive) | 19.8 µM (inactive)
10 | CC(Cc1ccc(O)cn1)(NC(=O)c1ccccc1)C(=O)O (centres undefined) | > 100 µM (inactive) | – | > 100 µM (inactive) | > 100 | > 100 µM (inactive) | > 100 µM (inactive) | > 100 µM (inactive) | > 100 µM (inactive) | > 100 µM (inactive) | > 100 µM (inactive) | > 100 µM (inactive) | > 100 µM (inactive) | 40.4 µM (inactive) | > 100 µM (inactive) | > 100 µM (inactive) | > 100 µM (inactive) | > 100 µM (inactive) | > 100 µM (inactive) | > 100 µM (inactive) | > 100 µM (inactive)
11 | Cc1cc2oc(C)c(S(=O)(=O)NC(=O)Nc3ccc(Cl)cc3)c(=O)c2c(=O)o1 | > 100 µM (inactive) | – | > 100 µM (inactive) | 23 | > 100 µM (inactive) | > 100 µM (inactive) | > 100 µM (inactive) | > 100 µM (inactive) | > 100 µM (inactive) | > 100 µM (inactive) | > 100 µM (inactive) | > 100 µM (inactive) | > 100 µM (inactive) | > 100 µM (inactive) | > 100 µM (inactive) | > 100 µM (inactive) | > 100 µM (inactive) | > 100 µM (inactive) | > 100 µM (inactive) | > 100 µM (inactive)
12 | CC(=O)c1c(C(F)(F)F)[n+]([O-])c2cc(Cl)c(Cl)cc2[n+]1[O-] | 0.575 µM (active) | – | 1.29 µM (inactive) | 0.196 | 0.792 µM (active) | 0.109 µM (active) | 0.165 µM (active) | 1.36 µM (inactive) | 0.531 µM (active) | 1.19 µM (inactive) | 0.796 µM (active) | 1.46 µM (inactive) | 1.07 µM (active) | 0.393 µM (active) | 1.24 µM (inactive) | 0.762 µM (active) | 0.211 µM (active) | 0.184 µM (active) | 0.157 µM (active) | 0.895 µM (active)
13 | N=c1oc2ccc(Cl)cc2cc1C(=O)NCc1ccccc1 | > 100 µM (inactive) | – | > 100 µM (inactive) | > 77.8 | > 100 µM (inactive) | 43.4 µM (inactive) | 24.7 µM (inactive) | > 100 µM (inactive) | > 100 µM (inactive) | 51.1 µM (inactive) | > 100 µM (inactive) | > 100 µM (inactive) | 22.4 µM (inactive) | > 100 µM (inactive) | > 86.3 µM (inactive) | > 100 µM (inactive) | 23.7 µM (inactive) | > 100 µM (inactive) | > 100 µM (inactive) | 17.8 µM (inactive)
14 | O=[N+]([O-])c1cccc2nccc(NCC(O)CO)c12 (centres undefined) | 15.1 µM (inactive) | – | 14.5 µM (inactive) | 8.85 | 14.7 µM (inactive) | 14 µM (inactive) | 7.01 µM (inactive) | 15.5 µM (inactive) | 11.6 µM (inactive) | 11.4 µM (inactive) | 13.1 µM (inactive) | 25.4 µM (inactive) | 22.8 µM (inactive) | 14.5 µM (inactive) | 14.6 µM (inactive) | 15.2 µM (inactive) | 14.2 µM (inactive) | 13.1 µM (inactive) | 21.7 µM (inactive) | 11.6 µM (inactive)
15 | O=C1C=C(Nc2ccc(S(=O)(=O)Nc3nccs3)cc2)c2ccccc2C1=O | > 100 µM (inactive) | – | 26.4 µM (inactive) | 23.7 | 19.1 µM (inactive) | 17.8 µM (inactive) | 38.5 µM (inactive) | 17 µM (inactive) | 23.1 µM (inactive) | 28.6 µM (inactive) | 19.9 µM (inactive) | > 100 µM (inactive) | 21.5 µM (inactive) | 19.4 µM (inactive) | 21.6 µM (inactive) | 31.6 µM (inactive) | 20.7 µM (inactive) | 22.2 µM (inactive) | 19.8 µM (inactive) | > 100 µM (inactive)
